pEC50, pIC50, pKi: −log10 of the molar value. “And” between values parts separate entries of the source, which are not always exact repeats. Equal values may be shown once. Where a name gives a salt, the structure may show the parent alone. Read-outs that look alike come from different tables or passages of the source.
Legend:
[1] = test system: adult human primary ventricular myocytes; test: Cardiotoxicity (pro-arrhythmia) assay in adult human primary cardiomyocytes; assay type: cell-based; settings: for pro-arrhythmic potential: 0.1–10 µM
in vitro = settings: human, pH 7.4
[2] = human
rKOR = target: T1, rKOR (Rattus norvegicus, UniProt P34975); test: G protein activation BRET assay (GαoB); assay type: cell-based; settings: for pEC50: HEK-293T
T1 construct: signal peptide (N); expressed in transfected cells; host or cells: HEK-293T, transient (PEI)

[3] = 180 mg oral dose; cited from earlier work
hKOR [4] = target: T2, hKOR (Homo sapiens, UniProt P41145); test: KOR [35S]GTPγS agonist assay (commercial); assay type: biochemical; settings: agonist, n = 1
T2 construct: expressed in transfected cells; host or cells: HEK-293T, transient (PEI)

h5-HT2A = h5-HT2A (Homo sapiens, UniProt P28223); test: IP1 functional assay, agonist; assay type: cell-based; settings: up to 10 µM
hNOP = target: T3, hNOP (Homo sapiens, UniProt P41146); test: human NOP (Orphanin ORL1) radioligand displacement; assay type: binding
T3 construct: purchased contracted research organization (eurofinsdiscoveryservices.com) item 260600

hMOR = hMOR (Homo sapiens, UniProt P35372); test: cell-based
h5-HT2B = h5-HT2B (Homo sapiens, UniProt P41595); test: IP1 functional assay, antagonist; assay type: cell-based; settings: read-out: % Inhibition of Control Agonist Response
male rats = test: Food maintained (operant) responding; assay type: in vivo, rat; settings: 40 mg/kg i.p.
Description: For food maintained responding studies, food access was restricted such that rats were maintained at 90% of their normal body weight until responding stabilized, at which point rats were provided 12–15 g of rodent chow in addition to the food pellets earned during the experimental session.
Rats were lever trained as described in the general methods. Responding was maintained as described with notable difference in timeout (TO) period 6 min and sessions lasting 2 h or until a maximum of 20 pellets was delivered. […] Responding was considered stable when variation in the number of reinforcers for three consecutive sessions was less than 20%. For the group receiving oxa-noribogaine, data were analyzed using a two-way ANOVA with Šidák’s multiple comparisons test for post hoc comparison.

male Fisher F-344 rats = test: Morphine intravenous self-administration; assay type: in vivo, rat; settings: for self-administration per session, individual animals (Fig. S9a): 40 mg/kg
hERG potassium channel = target: T4, hERG potassium channel (Homo sapiens, UniProt Q12809); settings: lit. value; cited from earlier work
T4 construct: purchased contracted research organization (eurofinsdiscoveryservices.com) item 4094

hKOR [5] = target: T2, hKOR; test: G protein activation BRET assay; assay type: cell-based; settings: for response, Fig. S5b concentration-response point (replicates): Log [Drug]
rat NMDA receptor = test: rat NMDA radioligand displacement ([3H]MK-801); assay type: binding

T2 sequence (P41145 whole entry): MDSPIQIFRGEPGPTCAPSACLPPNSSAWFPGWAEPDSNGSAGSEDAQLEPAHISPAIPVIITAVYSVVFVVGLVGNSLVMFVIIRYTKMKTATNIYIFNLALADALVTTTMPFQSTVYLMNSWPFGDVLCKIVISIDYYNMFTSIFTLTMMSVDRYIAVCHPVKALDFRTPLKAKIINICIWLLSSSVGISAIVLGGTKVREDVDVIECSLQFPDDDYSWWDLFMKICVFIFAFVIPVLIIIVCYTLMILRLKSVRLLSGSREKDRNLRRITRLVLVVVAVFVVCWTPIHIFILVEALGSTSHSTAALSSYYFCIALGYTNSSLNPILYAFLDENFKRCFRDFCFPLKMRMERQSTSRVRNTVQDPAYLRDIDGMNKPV
T1 sequence (P34975 whole entry): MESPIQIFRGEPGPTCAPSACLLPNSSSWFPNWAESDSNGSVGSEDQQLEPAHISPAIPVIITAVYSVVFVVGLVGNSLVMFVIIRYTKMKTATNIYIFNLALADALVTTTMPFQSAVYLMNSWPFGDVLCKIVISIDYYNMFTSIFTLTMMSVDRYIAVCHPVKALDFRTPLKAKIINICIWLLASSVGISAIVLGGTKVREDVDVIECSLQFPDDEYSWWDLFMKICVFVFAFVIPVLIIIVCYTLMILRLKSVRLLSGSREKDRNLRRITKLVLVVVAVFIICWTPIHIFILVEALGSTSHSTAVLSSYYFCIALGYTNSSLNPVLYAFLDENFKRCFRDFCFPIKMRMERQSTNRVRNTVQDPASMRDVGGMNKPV
T3 sequence (P41146 whole entry): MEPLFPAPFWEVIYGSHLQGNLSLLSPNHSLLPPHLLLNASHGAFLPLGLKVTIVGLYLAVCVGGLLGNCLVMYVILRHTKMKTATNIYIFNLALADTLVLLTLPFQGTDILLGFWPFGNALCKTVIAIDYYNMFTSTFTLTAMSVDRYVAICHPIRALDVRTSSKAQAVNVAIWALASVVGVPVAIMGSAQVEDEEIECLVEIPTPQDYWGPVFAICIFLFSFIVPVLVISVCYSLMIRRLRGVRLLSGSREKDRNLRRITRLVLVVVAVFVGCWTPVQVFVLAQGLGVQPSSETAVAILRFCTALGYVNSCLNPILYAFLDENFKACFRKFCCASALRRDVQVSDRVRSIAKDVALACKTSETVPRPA
Chain of h5-HT2B (P41595 whole entry): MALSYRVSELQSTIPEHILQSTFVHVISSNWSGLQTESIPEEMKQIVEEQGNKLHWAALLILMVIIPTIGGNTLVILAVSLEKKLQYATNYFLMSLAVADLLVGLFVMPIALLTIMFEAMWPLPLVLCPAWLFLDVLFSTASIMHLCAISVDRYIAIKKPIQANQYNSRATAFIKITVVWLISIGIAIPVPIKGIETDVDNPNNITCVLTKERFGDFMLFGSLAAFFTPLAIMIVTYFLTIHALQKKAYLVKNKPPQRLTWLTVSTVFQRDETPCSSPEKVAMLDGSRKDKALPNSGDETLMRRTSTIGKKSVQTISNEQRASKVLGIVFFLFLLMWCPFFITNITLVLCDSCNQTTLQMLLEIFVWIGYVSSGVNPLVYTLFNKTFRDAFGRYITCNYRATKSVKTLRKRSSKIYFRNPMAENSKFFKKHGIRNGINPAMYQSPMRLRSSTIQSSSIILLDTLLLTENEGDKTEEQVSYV
Chain of hMOR (P35372 whole entry): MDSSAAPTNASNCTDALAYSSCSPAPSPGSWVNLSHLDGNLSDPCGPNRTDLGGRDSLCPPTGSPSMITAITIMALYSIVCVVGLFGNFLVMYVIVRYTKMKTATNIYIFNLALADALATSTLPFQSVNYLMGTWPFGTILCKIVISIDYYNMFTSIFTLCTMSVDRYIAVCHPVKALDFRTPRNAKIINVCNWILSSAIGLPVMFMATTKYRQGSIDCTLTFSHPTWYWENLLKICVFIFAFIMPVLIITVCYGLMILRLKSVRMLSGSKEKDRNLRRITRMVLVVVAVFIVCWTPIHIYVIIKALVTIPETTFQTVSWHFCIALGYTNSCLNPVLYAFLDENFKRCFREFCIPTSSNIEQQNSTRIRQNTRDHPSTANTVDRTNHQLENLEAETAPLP
Chain of h5-HT2A (P28223 whole entry): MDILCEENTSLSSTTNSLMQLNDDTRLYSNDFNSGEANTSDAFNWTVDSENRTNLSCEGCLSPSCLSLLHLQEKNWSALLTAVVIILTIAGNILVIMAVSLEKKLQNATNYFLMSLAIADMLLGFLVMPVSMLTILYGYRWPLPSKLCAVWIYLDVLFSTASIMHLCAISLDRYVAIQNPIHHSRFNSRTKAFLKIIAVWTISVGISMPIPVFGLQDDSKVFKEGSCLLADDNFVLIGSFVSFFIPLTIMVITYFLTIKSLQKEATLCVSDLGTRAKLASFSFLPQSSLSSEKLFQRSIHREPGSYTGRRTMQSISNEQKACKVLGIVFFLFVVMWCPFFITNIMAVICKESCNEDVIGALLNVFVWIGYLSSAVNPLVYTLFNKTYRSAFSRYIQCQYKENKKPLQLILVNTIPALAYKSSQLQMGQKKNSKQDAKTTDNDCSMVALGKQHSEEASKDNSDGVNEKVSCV
T4 sequence (Q12809 whole entry): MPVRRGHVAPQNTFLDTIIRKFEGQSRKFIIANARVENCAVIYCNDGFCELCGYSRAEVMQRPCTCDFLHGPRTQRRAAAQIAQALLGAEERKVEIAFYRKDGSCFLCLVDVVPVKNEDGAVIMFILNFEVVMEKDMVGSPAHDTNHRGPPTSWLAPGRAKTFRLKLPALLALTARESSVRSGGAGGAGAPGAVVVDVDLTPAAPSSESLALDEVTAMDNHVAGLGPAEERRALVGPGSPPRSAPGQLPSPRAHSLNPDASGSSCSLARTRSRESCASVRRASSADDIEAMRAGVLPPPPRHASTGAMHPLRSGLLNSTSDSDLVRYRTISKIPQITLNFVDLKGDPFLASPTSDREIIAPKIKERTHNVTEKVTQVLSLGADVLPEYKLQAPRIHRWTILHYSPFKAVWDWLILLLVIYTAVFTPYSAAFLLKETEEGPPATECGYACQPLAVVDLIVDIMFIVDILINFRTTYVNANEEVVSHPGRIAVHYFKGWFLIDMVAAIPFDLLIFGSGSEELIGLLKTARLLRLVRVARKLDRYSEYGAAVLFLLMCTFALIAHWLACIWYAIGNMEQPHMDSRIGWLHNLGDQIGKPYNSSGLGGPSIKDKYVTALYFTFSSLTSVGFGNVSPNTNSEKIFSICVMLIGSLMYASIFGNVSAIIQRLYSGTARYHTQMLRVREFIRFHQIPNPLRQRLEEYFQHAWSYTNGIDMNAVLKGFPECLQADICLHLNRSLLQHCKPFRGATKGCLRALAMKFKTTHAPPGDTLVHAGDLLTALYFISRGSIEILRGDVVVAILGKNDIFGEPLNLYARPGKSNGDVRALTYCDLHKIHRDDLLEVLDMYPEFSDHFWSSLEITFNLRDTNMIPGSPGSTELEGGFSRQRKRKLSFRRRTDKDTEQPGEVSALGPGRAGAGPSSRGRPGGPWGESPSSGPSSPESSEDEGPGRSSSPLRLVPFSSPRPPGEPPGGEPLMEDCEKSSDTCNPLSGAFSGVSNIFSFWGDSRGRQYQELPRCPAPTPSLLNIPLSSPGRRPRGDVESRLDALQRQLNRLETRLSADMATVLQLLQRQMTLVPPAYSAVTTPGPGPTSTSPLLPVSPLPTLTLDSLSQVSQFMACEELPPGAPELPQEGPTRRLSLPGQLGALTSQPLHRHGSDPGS

CCC1CC2CC3c4[nH]c5ccc(O)cc5c4CCN(C2)C13 (stereo not drawn) [Noribogaine, Noribogaine hydrochloride]
concentration with greater than 20% incidence of arrhythmia-associated events (considerable pro-arrhythmia risk) [1]: ≥ 1 µM | Alternans % ([1]; 0.1 (µM)): 0% | Contraction Failure % ([1]; 0.1 (µM)): 0% | STV % ([1]; 0.1 (µM)): 0% | After-contraction % ([1]; 0.1 (µM), incidence of cells): 16.67% | pro-arrhythmic potential [1]: pro-arrhythmic potential by causing after-contractions and contraction failures | pro-arrhythmic potential ([1]; listed as noribogaine): concentration-dependent pro-arrhythmia risk | After-contraction % ([1]; 1 (µM)): 33.33% | Alternans % ([1]; 1 (µM)): 0% | Contraction Failure % ([1]; 1 (µM)): 0% | STV % ([1]; 1 (µM)): 0% | After-contraction % ([1]; 3.16 (µM)): 50% | Alternans % ([1]; 3.16 (µM)): 0% | Contraction Failure % ([1]; 3.16 (µM)): 16.67% | STV % ([1]; 3.16 (µM)): 0% | After-contraction % ([1]; 10 (µM)): 50% | Alternans % ([1]; 10 (µM)): 0% | Contraction Failure % ([1]; 10 (µM)): 16.67% | STV % ([1]; 10 (µM)): 0% | recovery at 4 h, 5 µM (in vitro): 75% | fraction unbound (in vitro; plasma): 0.401 | % Stability (4 h) [2]: 105% | % Unbound ([2]; plasma, pH 7.4): 40.1% | pEC50 (rKOR): 5.21 | pEC50 (rKOR; (95% CI)): 5.20 | Emax (rKOR; normalized to Emax of U-50,488): 52% | QT prolongation [3]: > 500 ms | Emax (hKOR [4]): 73% | pEC50 (hKOR [4]; (95% CI)): 5.08 | agonist activity at h5-HT2R (h5-HT2A): No agonist activity | % displacement at 10 µM (hNOP; at 10 µM, n = 1): < 0% | binding affinity for nociceptin receptor (ORL-1/NOP) (hNOP; up to 10 µM): No binding affinity | pEC50 (hMOR): 4.95 | Emax (hMOR): 57% | inhibition at 10 µM (h5-HT2B; 1.00E-05 M): 10% | inhibition at 1 µM (h5-HT2B; 1.00E-06 M): 7% | suppression of responding maintained by food on day 1 (male rats): > 80% | effect on morphine self-administration (male Fisher F-344 rats; 40 mg/kg i.p.): partial, but statistically significant, suppression of morphine intake on days 2 and 3, returning to pre-treatment level of morphine intake on day 5 | self-administration per session, individual animals (Fig. S9a) (male Fisher F-344 rats; session 1): 0 (2×) and 4 (2×) and 8 and 6 (2×) and 2 | self-administration per session, individual animals (Fig. S9a) (male Fisher F-344 rats; session 2): 7 and 19 and 24 and 41 and 27 (2×) and 15 (2×) | self-administration per session, individual animals (Fig. S9a) (male Fisher F-344 rats; session 3): 17 and 21 and 50 and 28 | self-administration per session, individual animals (Fig. S9a) (male Fisher F-344 rats; session 5): 49 and 40 and 50 (2×) and 36 (2×) and 31 and 21 | self-administration per session, individual animals (Fig. S9a) (male Fisher F-344 rats; session 6): 50 (5×) and 42 and 26 and 19 | self-administration per session, individual animals (Fig. S9a) (male Fisher F-344 rats; session 7): 29 (2×) and 15 and 50 (4×) and 17 | self-administration per session, individual animals (Fig. S9a) (male Fisher F-344 rats; session 8): 30 (2×) and 50 (4×) and 28 and 26 | self-administration per session, individual animals (Fig. S9a) (male Fisher F-344 rats; session 9): 26 and 35 and 50 (3×) and 22 and 28 and 13 | self-administration per session, individual animals (Fig. S9a) (male Fisher F-344 rats; session 10): 34 and 25 and 50 (3×) and 20 and 41 and 14 | self-administration per session, individual animals (Fig. S9a) (male Fisher F-344 rats; session 11): 33 and 19 and 50 (3×) and 9 and 26 and 3 | self-administration per session, individual animals (Fig. S9a) (male Fisher F-344 rats; session 12): 50 (5×) and 14 and 40 and 19 | self-administration per session, individual animals (Fig. S9a) (male Fisher F-344 rats; session 13): 50 (3×) and 23 and 33 and 28 | self-administration per session, individual animals (Fig. S9a) (male Fisher F-344 rats; session 14): 50 (3×) and 21 and 38 and 17 | self-administration per session, individual animals (Fig. S9a) (male Fisher F-344 rats; session 15): 50 | pKi (hERG potassium channel): 5.70 | response, Fig. S5b concentration-response point (replicates) (hKOR [5]; M = -4): 63.4148 and 52.568 and 43.4303 and -3.268 and 15.5992 and -3.578 and 46.3729 and 68.2306 and 65.5059 | response, Fig. S5b concentration-response point (replicates) (hKOR [5]; M = -5): 44.129 and 7.591 and 58.3969 and -7.944 and -3.52 and -16.5221 and 8.861 and 66.0772 and 47.0286 | response, Fig. S5b concentration-response point (replicates) (hKOR [5]; M = -6): 20.3519 and 3.61 and -1.914 and -21.4522 and 4.635 and -8.327 and 2.307 and 50.686 and 6.38 | response, Fig. S5b concentration-response point (replicates) (hKOR [5]; M = -7): -3.613 and 22.2417 and 10.4815 and -11.7203 and -7.426 and -8.634 and -0.3969 and 6.635 and -33.8028 | response, Fig. S5b concentration-response point (replicates) (hKOR [5]; M = -8): -6.02 and -4.0285 and -3.934 and -14.0445 and 2.721 and -12.2464 and 2.029 and -16.111 and -2.683 | response, Fig. S5b concentration-response point (replicates) (hKOR [5]; M = -9): 5.431 and -20.2939 and -8.392 and 0.6992 and -6.586 and -12.3198 and -2.633 and 36.0973 and 2.925 | response, Fig. S5b concentration-response point (replicates) (hKOR [5]; M = -10): 4.023 and 14.614 and -14.1911 and -26.8111 and -11.2252 and 12.0579 and -0.5811 and 6.156 and 9.5717 | response, Fig. S5b concentration-response point (replicates) (hKOR [5]; M = -11): -10.3398 and -7.2943 and -10.3521 and -20.7885 and 4.252 and -10.5358 and -2.026 and -5.486 and -20.474 | Emax (hKOR [5]; normalized to Emax of U-50,488): 46% | pIC50 (rat NMDA receptor): 4.38 | NMDA receptor radioligand displacement, concentration-response point (Fig. S3c) (rat NMDA receptor; 1.00E-04 M): 73 | NMDA receptor radioligand displacement, concentration-response point (Fig. S3c) (rat NMDA receptor; 1.00E-05 M): 14 | NMDA receptor radioligand displacement, concentration-response point (Fig. S3c) (rat NMDA receptor; 1.00E-06 M): 5 | NMDA receptor radioligand displacement, concentration-response point (Fig. S3c) (rat NMDA receptor; 2.15E-05 M): 32 | NMDA receptor radioligand displacement, concentration-response point (Fig. S3c) (rat NMDA receptor; 4.64E-05 M): 53 | pIC50 (rat NMDA receptor; [3H]MK-801 displacement, n = 1): 4.37
